Measured values: patent US10160724B2, “Tetrahydropyridine derivatives and their use as antibacterial agents” (Dong-A St Co., Ltd., priority 2016, dated 2018)
≈ marks a conversion by molar mass, not a printed value.

Key:
Test in all cases: In vitro antibiotic activity, agar dilution method (Mueller-Hinton agar, NCCLS)
Type in all cases: cell-based
K. pneumoniae ATCC 29665 = conditions: Klebsiella pneumoniae, ATCC29665; agar dilution, Mueller-Hinton agar; read-out: MIC for K. pneumoniae ATCC 29665
Method: (§1) To measure the antibiotic activity of the compounds prepared by Examples, antibiotic activity test in vitro was performed by agar dilution method using Mueller-Hinton agar according to the NCCLS (National Committee for Clinical Laboratory Standards. 2000. Methods for dilution antimicrobial susceptibility tests for bacteria that grow aerobiocally. Approved standard, NCCLS document M7-M5, 5th ed, vol 20, no 2. National Committee for Clinical Laboratory Standards, Wayne, Pa.). The test strain was Escherichia coli (ATCC 25922), Klebsiella pneumonia (ATCC 29665) and Pseudomonas aeriginosa (PAO1).

E. coli ATCC 25922 = conditions: Escherichia coli, ATCC25922; agar dilution, Mueller-Hinton agar; read-out: MIC for E. coli ATCC 25922
Method: as §1

P. aeruginosa PAO1 = conditions: Pseudomonas aeruginosa, PAO1; agar dilution, Mueller-Hinton agar; read-out: MIC for P. aeruginosa PAO1
Method: as §1

Compound | MIC (K. pneumoniae ATCC 29665) | MIC (E. coli ATCC 25922) | MIC (P. aeruginosa PAO1)
CC(CCN1CC=C(c2ccc(C#CC#CCCCO)cc2)CC1)(C(=O)NO)S(C)(=O)=O (stereo not drawn) [Example 46, N-hydroxy-4-(4-(4-(7-hydroxyhepta-1,3-diyn-1-yl)phenyl)-3,6-dihydropyridin-1(2H)-yl)-2-methyl-2-(methylsulfonyl)butanamide] | 1 to 8 µg/mL (≈ 2.18 to 17.4 µM) | < 1 µg/mL | 1 to 8 µg/mL (≈ 2.18 to 17.4 µM)
CC(CCN1CC=C(c2ccc(C#CC#CCCO)cc2)CC1)(C(=O)NO)S(C)(=O)=O (stereo not drawn) [Example 47, N-hydroxy-4-(4-(4-(6-hydroxyhexa-1,3-diyn-1-yl)phenyl)-3,6-dihydropyridin-1(2H)-yl)-2-methyl-2-(methylsulfonyl)butanamide] | 1 to 8 µg/mL (≈ 2.25 to 18 µM) | < 1 µg/mL | < 1 µg/mL
CC(CCN1CC=C(c2ccc(C#CC#CCO)cc2)CC1)(C(=O)NO)S(C)(=O)=O (stereo not drawn) [Example 48, N-hydroxy-4-(4-(4-(5-hydroxypenta-1,3-diyn-1-yl)phenyl)-3,6-dihydropyridin-1(2H)-yl)-2-methyl-2-(methylsulfonyl)butanamide] | 1 to 8 µg/mL (≈ 2.32 to 18.6 µM) | < 1 µg/mL | < 1 µg/mL
CN(C)CC#CC#Cc1ccc(C2=CCN(CCC(C)(C(=O)NO)S(C)(=O)=O)CC2)cc1 (stereo not drawn) [Example 49, 4-(4-(4-(5-(dimethylamino)penta-1,3-diyn-1-yl)phenyl)-3,6-dihydropyridin-1(2H)-yl)-N-hydroxy-2-methyl-2-(methylsulfonyl)butanamide] | 1 to 8 µg/mL (≈ 2.19 to 17.5 µM) | < 1 µg/mL | < 1 µg/mL
COCC#CC#Cc1ccc(C2=CCN(CCC(C)(C(=O)NO)S(C)(=O)=O)CC2)cc1 (stereo not drawn) [Example 50, N-hydroxy-4-(4-(4-(5-methoxypenta-1,3-diyn-1-yl)phenyl)-3,6-dihydropyridin-1(2H)-yl)-2-methyl-2-(methylsulfonyl)butanamide] | 1 to 8 µg/mL (≈ 2.25 to 18 µM) | < 1 µg/mL | < 1 µg/mL
CC(CCN1CC=C(c2ccc(C#CC#Cc3ccccc3)cc2)CC1)(C(=O)NO)S(C)(=O)=O (stereo not drawn) [Example 51, N-hydroxy-2-methyl-2-(methylsulfonyl)-4-(4-(4-(phenylbuta-1,3-diyn-1-yl)phenyl)-3,6-dihydropyridin-1(2H)-yl)butanamide] | > 16 µg/mL | > 16 µg/mL | > 16 µg/mL
CC(CCN1CC=C(C#Cc2ccncc2)CC1)(C(=O)NO)S(C)(=O)=O (stereo not drawn) [Example 52, N-hydroxy-2-methyl-2-(methylsulfonyl)-4-(4-(pyridin-4-ylethynyl)-3,6-dihydropyridin-1(2H)-yl)butanamide] | > 16 µg/mL | 8 to 16 µg/mL (≈ 21.2 to 42.4 µM) | > 16 µg/mL
CC(CCN1CC=C(C#Cc2ccc(Br)cc2)CC1)(C(=O)NO)S(C)(=O)=O (stereo not drawn) [Example 53, 4-(4-((4-bromophenyl)ethynyl)-3,6-dihydropyridin-1(2H)-yl)-N-hydroxy-2-methyl-2-(methylsulfonyl)butanamide] | 1 to 8 µg/mL (≈ 2.2 to 17.6 µM) | 1 to 8 µg/mL (≈ 2.2 to 17.6 µM) | > 16 µg/mL
CC(CCN1CC=C(C#CC#CCCCO)CC1)(C(=O)NO)S(C)(=O)=O (stereo not drawn) [Example 54, N-hydroxy-4-(4-(7-hydroxyhepta-1,3-diyn-1-yl)-3,6-dihydropyridin-1(2H)-yl)-2-methyl-2-(methylsulfonyl)butanamide] | > 16 µg/mL | 8 to 16 µg/mL (≈ 20.9 to 41.8 µM) | > 16 µg/mL
CC(CCN1CC=C(c2ccc(-c3ccncc3)cc2)CC1)(C(=O)NO)S(C)(=O)=O (stereo not drawn) [Example 55, N-hydroxy-2-methyl-2-(methylsulfonyl)-4-(4-(4-(pyridin-4-yl)phenyl)-3,6-dihydropyridin-1(2H)-yl)butanamide] | 1 to 8 µg/mL (≈ 2.33 to 18.6 µM) | 1 to 8 µg/mL (≈ 2.33 to 18.6 µM) | 1 to 8 µg/mL (≈ 2.33 to 18.6 µM)
CC(CCN1CC=C(c2ccc(-c3ccccc3)cc2)CC1)(C(=O)NO)S(C)(=O)=O (stereo not drawn) [Example 56, 4-(4-([1,1′-biphenyl]-4-yl)-3,6-dihydropyridin-1(2H)-yl)-N-hydroxy-2-methyl-2-(methylsulfonyl)butanamide] | < 1 µg/mL | < 1 µg/mL | 8 to 16 µg/mL (≈ 18.7 to 37.3 µM)
CC(CCN1CC=C(c2ccc(-c3ccc(Cl)cc3)cc2)CC1)(C(=O)NO)S(C)(=O)=O (stereo not drawn) [Example 57, 4-(4-(4′-chloro-[1,1′-biphenyl]-4-yl)-3,6-dihydropyridin-1(2H)-yl)-N-hydroxy-2-methyl-2-(methylsulfonyl)butanamide] | > 16 µg/mL | 1 to 8 µg/mL (≈ 2.16 to 17.3 µM) | > 16 µg/mL
CC(CCN1CC=C(c2ccc(-c3ccc(F)cc3)cc2)CC1)(C(=O)NO)S(C)(=O)=O (stereo not drawn) [Example 58, 4-(4-(4′-fluoro-[1,1′-biphenyl]-4-yl)-3,6-dihydropyridin-1(2H)-yl)-N-hydroxy-2-methyl-2-(methylsulfonyl)butanamide] | 1 to 8 µg/mL (≈ 2.24 to 17.9 µM) | < 1 µg/mL | > 16 µg/mL
CC(CCN1CC=C(c2ccc(-c3ccc(O)cc3)cc2)CC1)(C(=O)NO)S(C)(=O)=O (stereo not drawn) [Example 59, N-hydroxy-4-(4-(4′-hydroxy-[1,1′-biphenyl]-4-yl)-3,6-dihydropyridin-1(2H)-yl)-2-methyl-2-(methylsulfonyl)butanamide] | 8 to 16 µg/mL (≈ 18 to 36 µM) | < 1 µg/mL | 8 to 16 µg/mL (≈ 18 to 36 µM)
COc1ccc(-c2ccc(C3=CCN(CCC(C)(C(=O)NO)S(C)(=O)=O)CC3)cc2)cc1F (stereo not drawn) [Example 60, 4-(4-(3′-fluoro-4′-methoxy-[1,1′-biphenyl]-4-yl)-3,6-dihydropyridin-1(2H)-yl)-N-hydroxy-2-methyl-2-(methylsulfonyl)butanamide] | 8 to 16 µg/mL (≈ 16.8 to 33.6 µM) | < 1 µg/mL | > 16 µg/mL
CC(CCN1CC=C(c2ccc(-c3cccnc3)cc2)CC1)(C(=O)NO)S(C)(=O)=O (stereo not drawn) [Example 61, N-hydroxy-2-methyl-2-(methylsulfonyl)-4-(4-(4-(pyridin-3-yl)phenyl)-3,6-dihydropyridin-1(2H)-yl)butanamide] | > 16 µg/mL | 1 to 8 µg/mL (≈ 2.33 to 18.6 µM) | 1 to 8 µg/mL (≈ 2.33 to 18.6 µM)
CC(CCN1CC=C(c2ccc(-c3ccc(F)nc3)cc2)CC1)(C(=O)NO)S(C)(=O)=O (stereo not drawn) [Example 62, 4-(4-(4-(6-fluoropyridin-3-yl)phenyl)-3,6-dihydropyridin-1(2H)-yl)-N-hydroxy-2-methyl-2-(methylsulfonyl)butanamide] | 1 to 8 µg/mL (≈ 2.23 to 17.9 µM) | < 1 µg/mL | 1 to 8 µg/mL (≈ 2.23 to 17.9 µM)
CC(CCN1CC=C(c2ccc(-c3ccoc3)cc2)CC1)(C(=O)NO)S(C)(=O)=O (stereo not drawn) [Example 63, 4-(4-(4-(furan-3-yl)phenyl)-3,6-dihydropyridin-1(2H)-yl)-N-hydroxy-2-methyl-2-(methylsulfonyl)butanamide] | < 1 µg/mL | < 1 µg/mL | 8 to 16 µg/mL (≈ 19.1 to 38.2 µM)
CC(CCN1CC=C(c2ccc(-c3ccc(S(C)(=O)=O)cc3)cc2)CC1)(C(=O)NO)S(C)(=O)=O (stereo not drawn) [Example 64, N-hydroxy-2-methyl-2-(methylsulfonyl)-4-(4-(4′-(methylsulfonyl)-[1,1′-biphenyl]-4-yl)-3,6-dihydropyridin-1(2H)-yl)butanamide] | 1 to 8 µg/mL (≈ 1.97 to 15.8 µM) | < 1 µg/mL | 1 to 8 µg/mL (≈ 1.97 to 15.8 µM)
CC(CCN1CC=C(c2ccc(-c3ccc(CO)cc3)cc2)CC1)(C(=O)NO)S(C)(=O)=O (stereo not drawn) [Example 65, N-hydroxy-4-(4-(4′-(hydroxymethyl)-[1,1′-biphenyl]-4-yl)-3,6-dihydropyridin-1(2H)-yl)-2-methyl-2-(methylsulfonyl)butanamide] | 8 to 16 µg/mL (≈ 17.4 to 34.9 µM) | < 1 µg/mL | > 16 µg/mL
CC(CCN1CC=C(c2ccc(-c3ccc(C#N)cc3)cc2)CC1)(C(=O)NO)S(C)(=O)=O (stereo not drawn) [Example 66, 4-(4-(4′-cyano-[1,1′-biphenyl]-4-yl)-3,6-dihydropyridin-1(2H)-yl)-N-hydroxy-2-methyl-2-(methylsulfonyl)butanamide] | 1 to 8 µg/mL (≈ 2.2 to 17.6 µM) | < 1 µg/mL | > 16 µg/mL
CCCCCc1ccc(-c2ccc(C3=CCN(CCC(C)(C(=O)NO)S(C)(=O)=O)CC3)cc2)cc1 (stereo not drawn) [Example 67, N-hydroxy-2-methyl-2-(methylsulfonyl)-4-(4-(4′-pentyl-[1,1′-biphenyl]-4-yl)-3,6-dihydropyridin-1(2H)-yl)butanamide] | > 16 µg/mL | 8 to 16 µg/mL (≈ 16 to 32.1 µM) | > 16 µg/mL
CC(CCN1CC=C(c2ccc(-c3ccc(S(=O)(=O)N4CCC4)cc3)cc2)CC1)(C(=O)NO)S(C)(=O)=O (stereo not drawn) [Example 68, 4-(4-(4′-(azetidin-1-ylsulfonyl)-[1,1′-biphenyl]-4-yl)-3,6-dihydropyridin-1(2H)-yl)-N-hydroxy-2-methyl-2-(methylsulfonyl)butanamide] | 1 to 8 µg/mL (≈ 1.83 to 14.6 µM) | < 1 µg/mL | 1 to 8 µg/mL (≈ 1.83 to 14.6 µM)
CC(CCN1CC=C(c2ccc(-c3ccc(OS(C)(=O)=O)cc3)cc2)CC1)(C(=O)NO)S(C)(=O)=O (stereo not drawn) [Example 69, 4′-(1-(4-(hydroxyamino)-3-methyl-3-(methylsulfonyl)-4-oxobutyl)-1,2,3,6-tetrahydropyridin-4-yl)-[1,1′-biphenyl]-4-yl methanesulfonate] | < 1 µg/mL | < 1 µg/mL | 8 to 16 µg/mL
CC(CCN1CC=C(c2ccc(-c3ccsc3)cc2)CC1)(C(=O)NO)S(C)(=O)=O (stereo not drawn) [Example 70, N-hydroxy-2-methyl-2-(methylsulfonyl)-4-(4-(4-(thiophen-3-yl)phenyl)-3,6-dihydropyridin-1(2H)-yl)butanamide] | < 1 µg/mL | < 1 µg/mL | > 16 µg/mL
COc1ccsc1-c1ccc(C2=CCN(CCC(C)(C(=O)NO)S(C)(=O)=O)CC2)cc1.Cl (stereo not drawn) [Example 71, N-hydroxy-4-(4-(4-(3-methoxythiophen-2-yl)phenyl)-3,6-dihydropyridin-1(2H)-yl)-2-methyl-2-(methylsulfonyl)butanamide hydrochloride] | < 1 µg/mL | < 1 µg/mL | > 16 µg/mL
